Results as given in US20130109738A1, “Control of Cardiac Growth, Differentiation and Hypertrophy” (The Board of Trustees of the Leland Stanford Junior …, priority 2010, published 2013).
Entries after “also recorded” stand apart in the source; their conditions may differ.

Columns and labels:
[1] = system: α-MHC promoter; test: Luciferase reporter assay of α-MHC promoter activity in SW13 cells; type: cell-based, human
Experimental: (§1) Cloning and Luciferase Reporter Assay Full length as well as serially truncated versions of intergenic α-MHC and β-MHC promoters were cloned into pREP4-Luc reporter plasmid, as detailed in the supplementary method. The constructs were transfected into SW13 cells with lipofectamine 2000 (Invitrogen, Calif.) along with pREP7-RL as a transfection efficiency control and Brg1 expression vector with the appropriate empty vector control. Luciferase activity was measured and normalized to that of Renilla luciferase construct using the Dual-Luciferase Reporter System (Promega, Wis.).
(§2) Cloning and Luciferase Reporter Assay Specific truncations for the reporter constructs are as follows: for α-MHC promoter, full length promoter spans from 4243 by upstream and 192 by downstream of the transcription start site (−4243, +192), serially truncated versions span (−2537, +192), (−1802, +192), and (−462, +192). Likewise, β-MHC promoters span (−3561, +222), (−1770, +222), and (−835, +222).

[2] = system: α-MHC and β-MHC expression in cardiac ventricles; test: Quantitative RT-PCR of ventricular α-MHC and β-MHC in cultured whole embryos; design: species or system mouse
Experimental: (§3) Whole embryo culture Embryos ([…]) with intact yolk sacs were isolated and incubated in 1 ml culture medium containing 97% rat serum (Harlan Biosciences, Cincinnati, Ohio), 2 mg glucose, 100 U penicillin G and 100 μg streptomycin that was rotated slowly at […] and gassed periodically (every 8 hours) with 20% oxygen, 5% carbon dioxide, 75% nitrogen from E8.75 to E9.5, and 70% oxygen, 5% carbon dioxide and 25% nitrogen from E9.5 to E10.5. BMP10 (10 nM, RD Systems, Minneapolis, Minn.), BSA (125 ng/ml), TSA (100-500 nM, Sigma-Aldrich, St. Louis, Mo.), PJ-34 (20 uM, Alexis Corporation, San Diego)), BrdU (30_g/mL, Simga-Aldrich) or DMSO was added directly to the culture medium or during the last six hours for BrdU. Embryos were harvested 36-48 hours later for analysis.
Quantitative RT-PCR analysis. Quantitative RT-PCR analyses were performed as described previously to examine gene expressions in the cardiac ventricles of E10.5/E11.5 embryonic hearts and adult hearts. The following primer sequences were used: Murine MHO, 5′ primer […], 3′ primer […]. Murine β-MHC, 5″ primer […], 3′ primer […]. Murine HPRT, 5′ primer GCTGGTGAAAAGGACCTCT, 3′ primer […]. Murine Brg1, 5″ primer […], 3′ primer […]. Human H3F3A, 5′ primer […], 3′ primer […]. Human Brg1, 5′ primer […], 3′ primer […]. Human α-MHC and β-MHC were by Taqman probes (Applied Biosciences, Foster City, Calif.. RT-PCR reactions were performed using SYBR green master mix (BioRad, Hercules, Calif.) or Taqman reagents (Applied Biosciences), and the primer sets were tested to be quantitative. Threshold cycles and melting curve measurements were performed with software.

[3] = system: β-MHC promoter; test: Luciferase reporter assay of β-MHC promoter activity in SW13 cells; type: cell-based, human
Experimental: as §1, §2

[4] = system: myocardial proliferation in cultured embryos; test: Myocardial BrdU incorporation in whole embryo culture; design: species or system mouse
Experimental: Quantitative analysis of myocardial development H&E-stained 7 μm paraffin sections were used for the morphometric analysis of the compact and trabecular myocardium. The following parameters were measured: thickness of compact 4 myocardium, number of trabeculi directly connected to compact myocardium, and trabecular area normalized to ventricular size. BrdU-stained sections were used to count the number of BrdU-positive cells per area of myocardium or per number of cells in the endocardium or endocardial cushions. All quantification and scale measurement were performed using NIS-Elements software (Nikon).
as §3
Proliferation and apoptosis analysis. Pregnant mice were injected with BrdU (Sigma, 100 μg/ml, intraperitoneal injection) for 6 hours prior to embryo isolation at E10.5 or E11.5. Incorporated BrdU was stained in the tissue-section of the heart according to manufacturer's protocol (Zymed Laboratories, South San Francisco, Calif.). Apoptosis of embryos were analyzed by TUNEL staining using a kit (Roche, Applied Science, Indianapolis, Ind.).

[5] = system: embryos; test: Gross morphology of cultured whole embryos; design: species or system mouse; conditions: whole embryos cultured from E9 to E10, compared to littermates treated with DMSO
Experimental: as §3

[6] = whole embryos cultured from E9 to E10, vs DMSO

## CN(C)CC(=O)Nc1ccc2[nH]c(=O)c3ccccc3c2c1 [PJ-34]
[1]; SW13 cells, PARP1 inhibition
  effect on Brg1-mediated α-MHC repression: reduced
[2]; embryos cultured from E9 to E10, PJ-34 20 uM
  MHC switch in cultured embryos: exhibited α- and β-MHC switches; also recorded: causes MHC switch from β-MHC to α-MHC
[3]; SW13 cells, PARP1 inhibition
  effect on Brg1-mediated β-MHC activation: reduced

## CC(/C=C/C(=O)NO)=C\[C@@H](C)C(=O)c1ccc(N(C)C)cc1 [TSA, trichostatin A]
[4]; wildtype embryos cultured from E8.75 to E10.5, BrdU last six hours, vs DMSO
  myocardial proliferation (BrdU incorporation): normal
[1]; SW13 cells transfected with Brg1 expression vector
  effect on BAF-mediated repression of α-MHC reporter: reversed the BAF-mediated repression of α-MHC
[2]; [6]
  increase in α/β MHC ratio: 3.5 folds
  α-MHC expression: significantly up-regulated
  β-MHC expression: down-regulated
[5]
  gross morphology of treated embryos: grossly normal
[3]; SW13 cells transfected with Brg1-expressing plasmid
  effect on Brg1-induced β-MHC promoter activation: no significant impact
[3]; SW13 cells, basal activity without Brg1
  reduction of β-MHC promoter activity: 55%

B1: BMP10: BMP10 protein (10 nM, RD Systems) required for the proliferation of myocardial cells (protein, UniProt O95393 317-424, looked up)
Bone morphogenetic protein 10: NAKGNYCKRTPLYIDFKEIGWDSWIIAPPGYEAYECRGVCNYPLAEHLTPTKHAIIQALVHLKNSQKASKACCVPTKLEPISILYLDKGVVTYKFKYEGMAVSECGCR
[4]; Sm22αCre;Brg1F/F embryos cultured from E8.75 for 42 to 48 hours, BMP10 10 nM
  increase of BrdU incorporation: 2.6 folds
[4]; Sm22αCre;Brg1F/F embryos cultured from E8.75 for 42 to 48 hours, BMP10 10 nM, untreated mutant 33+/−12%
  BrdU incorporation restored to (relative to control embryos): 85+/−10%
[2]; cultured Sm22αCre;Brg1F/F embryos, BMP10 vs BSA
  effect on premature MHC differentiation (α-MHC over-, β-MHC under-expression): failed to reverse the premature MHC differentiation
